How the values were obtained:
Format in all cases: in vivo
[1] = test system: barnyardgrass (Echinochloa crus-galli); experiment: Test B flooded paddy test; details: for Plant response rating, Barnyardgrass: Flood (flooded paddy test), 13 to 15 days; for Barnyardgrass plant response rating: Flood, 31 g ai/ha, scale 0 to 100 (0 no effect, 100 complete control)
In short: (§1)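 Rice, umbrella sedge, ducksalad and barnyardgrass were grown to the 2-leaf stage, flooded to 3 cm, and compound was applied directly to the paddy water, with that depth kept throughout. After 13 to 15 days in the greenhouse, plants were visually rated against controls on a 0 (no effect) to 100 (complete control) scale.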

rice (Oryza sativa) = experiment: Test B flooded paddy test; details: for Plant response rating, Rice: Flood (flooded paddy test), 13 to 15 days; for Rice plant response rating: Flood, 31 g ai/ha, scale 0 to 100 (0 no effect, 100 complete control)
In short: as §1

[2] = test system: umbrella sedge (Cyperus difformis); experiment: Test B flooded paddy test; details: for Plant response rating, Sedge, Umbrella: Flood (flooded paddy test), 13 to 15 days; for Sedge, Umbrella plant response rating: Flood, 31 g ai/ha, scale 0 to 100 (0 no effect, 100 complete control)
In short: as §1

[3] = test system: ducksalad (Heteranthera limosa); experiment: Test B flooded paddy test; details: for Plant response rating, Ducksalad: Flood (flooded paddy test), 125 g ai/ha, scale 0 to 100, 0 is no effect, 100 is complete control, 13 to 15 days; for Ducksalad plant response rating: Flood, 31 g ai/ha, scale 0 to 100 (0 no effect, 100 complete control)
In short: as §1

[4] = test system: barnyardgrass (Echinochloa crus-galli); experiment: Test A pre-/postemergence plant response; details: for Barnyardgrass plant response rating: visual injury, 0 to 100 scale (0 no effect, 100 complete control), approx. ten days
In short: (§2)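 Each species was treated preemergence via directed soil spray and postemergence at the one- to two-leaf stage, with compounds formulated in a non-phytotoxic solvent plus surfactant. Visual injury relative to untreated controls was rated after about ten days on a 0–100 scale.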

[5] = test system: pigweed (Amaranthus retroflexus); experiment: Test A pre-/postemergence plant response; details: for Pigweed plant response rating: visual injury, 0 to 100 scale (0 no effect, 100 complete control), approx. ten days
In short: as §2

[6] = test system: large crabgrass (Digitaria sanguinalis); experiment: Test A pre-/postemergence plant response; details: for Crabgrass, Large plant response rating: visual injury, 0 to 100 scale (0 no effect, 100 complete control), approx. ten days
In short: as §2

[7] = test system: wheat (Triticum aestivum); experiment: Test A pre-/postemergence plant response; details: for Wheat plant response rating: visual injury, 0 to 100 scale (0 no effect, 100 complete control), approx. ten days
In short: as §2

[8] = test system: velvetleaf (Abutilon theophrasti); experiment: Test A pre-/postemergence plant response; details: for Velvetleaf plant response rating: visual injury, 0 to 100 scale (0 no effect, 100 complete control), approx. ten days
In short: as §2

[9] = test system: morningglory (Ipomoea spp.); experiment: Test A pre-/postemergence plant response; details: for Morningglory plant response rating: visual injury, 0 to 100 scale (0 no effect, 100 complete control), approx. ten days
In short: as §2

corn (Zea mays) = experiment: Test A pre-/postemergence plant response; details: for Corn plant response rating: visual injury, 0 to 100 scale (0 no effect, 100 complete control), approx. ten days
In short: as §2

[10] = test system: giant foxtail (Setaria faberii); experiment: Test A pre-/postemergence plant response; details: for Foxtail, Giant plant response rating: visual injury, 0 to 100 scale (0 no effect, 100 complete control), approx. ten days
In short: as §2

[11] = test system: Russian thistle (Salsola iberica); experiment: Test F combination of compound 2 with bromoxynil, postemergence; details: 15 days, mean of three replicates, scale 0 to 100
Method: Test F evaluated the effect of combining compound 2 with bromoxynil. The test species for this experiment was Russian thistle (Salsola iberica), which was prepared by sowing seeds into a blend of loam soil and sand. Test chemicals were formulated in a non-phytotoxic solvent mixture that included a surfactant and applied postemergence to plants ranging in height from 12 to 20 cm. […] Treatments consisted of Compound 2, bromoxynil, or their combination, using a spray volume of 457 L/ha. Each treatment was replicated three times. Treated plants and untreated controls were maintained in a greenhouse for 15 days, after which time all plants were visually evaluated and compared to the untreated controls. […] Colby's Equation was used to determine the herbicidal effects expected from the mixtures. Colby's Equation (Colby, S.

[12] = 125 g ai/ha, scale 0 to 100, 0 is no effect, 100 is complete control
[13] = Postemergence, 125 g ai/ha, 0 to 100 scale where 0 is no effect and 100 is complete control
[14] = Preemergence, 125 g ai/ha, 0 to 100 scale, 0 = no effect, 100 = complete control
[15] = Preemergence, 500 g ai/ha, 0 to 100 scale, 0 = no effect, 100 = complete control
[16] = 250 g ai/ha, flooded paddy test, visual rating on 0 to 100 scale (0 no effect, 100 complete control) after 13 to 15 days
[17] = 62 g ai/ha, scale of 0 to 100 where 0 is no effect and 100 is complete control

C#CCn1c(-c2cc(F)cc(F)c2)ncc(C(=O)C2=C(O)CCCC2=O)c1=O [Compound 170]
Plant response rating, Barnyardgrass [1, 12]: 30 | Barnyardgrass plant response rating [1]: 0 | Plant response rating, Rice (rice (Oryza sativa); [12]): 20 | Rice plant response rating (rice (Oryza sativa)): 15 | Plant response rating, Sedge, Umbrella [2, 12]: 35 | Sedge, Umbrella plant response rating [2]: 0 | Plant response rating, Ducksalad [3]: 45 | Ducksalad plant response rating [3]: 0 | Plant response rating, Barnyardgrass [4, 13]: 40 | Barnyardgrass plant response rating ([4]; Postemergence, 500 g ai/ha): 90 | Plant response rating, Barnyardgrass [4, 14]: 0 | Plant response rating, Barnyardgrass [4, 15]: 60 | Plant response rating, Pigweed [5, 13]: 80 | Pigweed plant response rating ([5]; Postemergence, 500 g ai/ha): 100 | Plant response rating, Pigweed [5, 14]: 30 | Plant response rating, Pigweed [5, 15]: 50 | Plant response rating, Crabgrass, Large [6, 13]: 60 | Crabgrass, Large plant response rating ([6]; Postemergence, 500 g ai/ha): 90 | Plant response rating, Crabgrass, Large [6, 14]: 10 | Plant response rating, Crabgrass, Large [6, 15]: 70 | Plant response rating, Wheat [7, 13]: 0 | Wheat plant response rating ([7]; Postemergence, 500 g ai/ha): 20 | Plant response rating, Wheat [7, 14]: 0 | Plant response rating, Wheat [7, 15]: 20 | Plant response rating, Velvetleaf [8, 13]: 100 | Velvetleaf plant response rating ([8]; Postemergence, 500 g ai/ha): 100 | Plant response rating, Velvetleaf [8, 14]: 10 | Plant response rating, Velvetleaf [8, 15]: 80 | Plant response rating, Morningglory [9, 13]: 100 | Morningglory plant response rating ([9]; Postemergence, 500 g ai/ha): 100 | Plant response rating, Morningglory [9, 14]: 0 | Plant response rating, Morningglory [9, 15]: 70 | Plant response rating, Corn (corn (Zea mays); [13]): 20 | Corn plant response rating (corn (Zea mays); Postemergence, 500 g ai/ha): 30 | Plant response rating, Corn (corn (Zea mays); [14]): 0 | Plant response rating, Corn (corn (Zea mays); [15]): 0 | Plant response rating, Foxtail, Giant [10, 13]: 50 | Foxtail, Giant plant response rating ([10]; Postemergence, 500 g ai/ha): 80 | Plant response rating, Foxtail, Giant [10, 14]: 10 | Plant response rating, Foxtail, Giant [10, 15]: 70

N#Cc1cc(Br)c(O)c(Br)c1 [bromoxynil, reference compound]
Russian Thistle Obsd. (observed effect) ([11]; Bromoxynil 70 g a.i./ha alone): 8 | Russian Thistle Obsd. (observed effect) ([11]; Bromoxynil 140 g a.i./ha alone): 13

Cc1ccc(-n2c(-c3cccc(C)c3)ncc(C(=O)C3=C(O)CCCC3=O)c2=O)cc1 [Compound 211]
Plant response rating, Flood, Barnyardgrass [1, 16]: 35 | Plant response rating, Barnyardgrass [1, 17]: 0 | Plant response rating, Barnyardgrass [1, 12]: 25 | Barnyardgrass plant response rating [1]: 0 | Plant response rating, Flood, Rice (rice (Oryza sativa); [16]): 15 | Plant response rating, Rice (rice (Oryza sativa); [17]): 0 | Plant response rating, Rice (rice (Oryza sativa); [12]): 0 | Rice plant response rating (rice (Oryza sativa)): 0 | Plant response rating, Flood, Sedge, Umbrella [2, 16]: 80 | Plant response rating, Sedge, Umbrella [2, 17]: 0 | Plant response rating, Sedge, Umbrella [2, 12]: 70 | Sedge, Umbrella plant response rating [2]: 0 | Plant response rating, Flood, Ducksalad [3, 16]: 85 | Plant response rating, Ducksalad [3]: 85 | Ducksalad plant response rating [3]: 50 | Plant response rating, Barnyardgrass [4, 13]: 50 | Barnyardgrass plant response rating ([4]; Postemergence, 500 g ai/ha): 100 | Plant response rating, Barnyardgrass [4, 14]: 10 | Plant response rating, Barnyardgrass [4, 15]: 70 | Plant response rating, Pigweed [5, 13]: 70 | Pigweed plant response rating ([5]; Postemergence, 500 g ai/ha): 90 | Plant response rating, Pigweed [5, 14]: 40 | Plant response rating, Pigweed [5, 15]: 60 | Plant response rating, Crabgrass, Large [6, 13]: 40 | Crabgrass, Large plant response rating ([6]; Postemergence, 500 g ai/ha): 80 | Plant response rating, Crabgrass, Large [6, 14]: 10 | Plant response rating, Crabgrass, Large [6, 15]: 90 | Plant response rating, Wheat [7, 13]: 0 | Wheat plant response rating ([7]; Postemergence, 500 g ai/ha): 0 | Plant response rating, Wheat [7, 14]: 0 | Plant response rating, Wheat [7, 15]: 0 | Plant response rating, Velvetleaf [8, 13]: 60 | Velvetleaf plant response rating ([8]; Postemergence, 500 g ai/ha): 70 | Plant response rating, Velvetleaf [8, 14]: 30 | Plant response rating, Velvetleaf [8, 15]: 60 | Plant response rating, Morningglory [9, 13]: 70 | Morningglory plant response rating ([9]; Postemergence, 500 g ai/ha): 100 | Plant response rating, Morningglory [9, 14]: 0 | Plant response rating, Morningglory [9, 15]: 10 | Plant response rating, Corn (corn (Zea mays); [13]): 0 | Corn plant response rating (corn (Zea mays); Postemergence, 500 g ai/ha): 20 | Plant response rating, Corn (corn (Zea mays); [14]): 0 | Plant response rating, Corn (corn (Zea mays); [15]): 0 | Plant response rating, Foxtail, Giant [10, 13]: 50 | Foxtail, Giant plant response rating ([10]; Postemergence, 500 g ai/ha): 80 | Plant response rating, Foxtail, Giant [10, 14]: 20 | Plant response rating, Foxtail, Giant [10, 15]: 50

Source: US8952024B2, “Herbicidal pyrimidone derivatives” (E I du Pont de Nemours and Company, priority 2009, dated 2015)
